Consider three molecules from patent EP4745135A1 (Gluetacs Therapeutics (Shanghai) Co., Ltd., priority 2023, dated 2025).

One may read the inhibition as the change of the read-out against control, counted positive when it falls.

Experiment [1] concerns Human myeloid monocytic leukemia cell (MV-4-11). Put plainly: Tumor cell proliferation inhibition (CellTiter-Meiluncell luminescent cell viability assay). The following applies: MV4-11, 96 h; for inhibition at 0.01 µM: read-out: Inhibition Rate at 10 nM (%); for inhibition at 0.5 µM: read-out: Inhibition Rate at 500 nM (%).
In another experiment the target is T1, WEE1 (Homo sapiens, UniProt P30291+Q96SW2).
T1 construct: effects of the compounds of the present disclosure on the expression of target proteins in cells; endogenous in cells; host or cells: human PBMCs (Milecell Biotechnologies)
T1 sequence (P30291 whole entry): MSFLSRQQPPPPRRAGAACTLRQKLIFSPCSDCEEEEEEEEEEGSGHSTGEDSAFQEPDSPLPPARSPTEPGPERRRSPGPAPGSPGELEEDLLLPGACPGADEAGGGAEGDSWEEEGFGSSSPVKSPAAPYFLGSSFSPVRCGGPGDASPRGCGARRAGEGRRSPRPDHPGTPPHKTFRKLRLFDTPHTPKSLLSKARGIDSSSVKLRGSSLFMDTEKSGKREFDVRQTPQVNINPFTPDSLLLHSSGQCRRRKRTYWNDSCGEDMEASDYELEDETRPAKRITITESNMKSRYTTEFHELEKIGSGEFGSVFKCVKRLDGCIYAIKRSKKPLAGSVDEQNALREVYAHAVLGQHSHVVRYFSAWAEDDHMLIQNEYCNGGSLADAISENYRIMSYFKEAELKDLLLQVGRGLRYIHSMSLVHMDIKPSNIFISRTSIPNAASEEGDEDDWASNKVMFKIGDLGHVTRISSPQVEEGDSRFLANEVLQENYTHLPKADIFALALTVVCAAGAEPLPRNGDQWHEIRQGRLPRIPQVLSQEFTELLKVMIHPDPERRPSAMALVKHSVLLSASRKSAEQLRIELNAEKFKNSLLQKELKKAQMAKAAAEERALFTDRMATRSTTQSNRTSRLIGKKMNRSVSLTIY
T1 sequence (Q96SW2 whole entry): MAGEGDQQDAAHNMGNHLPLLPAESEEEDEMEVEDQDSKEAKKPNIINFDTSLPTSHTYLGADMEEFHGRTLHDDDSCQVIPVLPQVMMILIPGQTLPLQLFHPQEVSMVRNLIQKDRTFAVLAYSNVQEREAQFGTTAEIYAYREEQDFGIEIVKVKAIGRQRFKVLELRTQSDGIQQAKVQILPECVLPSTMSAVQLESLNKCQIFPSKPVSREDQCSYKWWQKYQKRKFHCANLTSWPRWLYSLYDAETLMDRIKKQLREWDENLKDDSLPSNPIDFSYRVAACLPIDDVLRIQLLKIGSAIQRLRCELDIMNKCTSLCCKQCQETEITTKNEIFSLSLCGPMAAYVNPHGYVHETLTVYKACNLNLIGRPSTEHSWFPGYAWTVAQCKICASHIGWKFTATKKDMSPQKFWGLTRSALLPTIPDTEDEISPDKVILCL
T1 sequence (Q16531 whole entry partner): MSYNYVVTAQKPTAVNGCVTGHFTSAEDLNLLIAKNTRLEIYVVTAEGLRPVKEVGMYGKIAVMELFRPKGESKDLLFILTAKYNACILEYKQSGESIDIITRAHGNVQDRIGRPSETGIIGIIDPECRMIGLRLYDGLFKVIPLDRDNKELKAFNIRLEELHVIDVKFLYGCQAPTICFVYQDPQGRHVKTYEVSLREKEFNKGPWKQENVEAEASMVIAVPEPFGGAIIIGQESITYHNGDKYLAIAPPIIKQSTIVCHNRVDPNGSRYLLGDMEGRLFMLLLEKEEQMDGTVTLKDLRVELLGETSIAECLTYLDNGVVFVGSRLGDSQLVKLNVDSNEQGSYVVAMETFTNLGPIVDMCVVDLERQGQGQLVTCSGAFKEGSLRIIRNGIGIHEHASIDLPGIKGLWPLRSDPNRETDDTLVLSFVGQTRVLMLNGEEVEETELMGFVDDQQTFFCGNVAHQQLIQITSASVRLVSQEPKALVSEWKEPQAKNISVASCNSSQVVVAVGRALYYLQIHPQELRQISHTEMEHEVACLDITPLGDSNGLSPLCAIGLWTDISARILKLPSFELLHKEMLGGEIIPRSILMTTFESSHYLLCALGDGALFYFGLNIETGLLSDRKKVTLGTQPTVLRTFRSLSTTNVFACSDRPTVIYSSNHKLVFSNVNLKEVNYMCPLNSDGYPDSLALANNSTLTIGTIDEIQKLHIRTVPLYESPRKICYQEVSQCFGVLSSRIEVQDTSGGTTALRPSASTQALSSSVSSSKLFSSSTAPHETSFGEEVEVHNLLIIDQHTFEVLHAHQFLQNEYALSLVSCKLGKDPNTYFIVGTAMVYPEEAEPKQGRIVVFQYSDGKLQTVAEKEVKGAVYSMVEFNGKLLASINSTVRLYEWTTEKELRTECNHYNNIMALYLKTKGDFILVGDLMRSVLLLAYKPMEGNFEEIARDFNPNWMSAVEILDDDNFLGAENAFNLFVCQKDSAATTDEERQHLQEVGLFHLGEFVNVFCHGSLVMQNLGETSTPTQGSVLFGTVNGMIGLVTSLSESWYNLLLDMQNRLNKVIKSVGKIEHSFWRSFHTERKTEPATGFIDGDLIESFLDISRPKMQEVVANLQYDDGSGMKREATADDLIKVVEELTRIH
Put plainly: Western blot, degradation of substrate protein in hPBMCs. In kind it is cell-based. For orientation: In western blotting, separated proteins are transferred to a membrane and probed.

A further experiment has as its target T2, CK1α (Homo sapiens, UniProt P48729+Q96SW2).
T2 construct: effects of the compounds of the present disclosure on the expression of target proteins in cells; endogenous in cells; host or cells: human PBMCs (Milecell Biotechnologies)
Described as above. Type of experiment: cell-based.

In a further experiment the target is T3, IKZF1 (Homo sapiens, UniProt Q13422+Q96SW2).
T3 construct: effects of the compounds of the present disclosure on the expression of target proteins in cells; endogenous in cells; host or cells: human PBMCs (Milecell Biotechnologies)
T3 sequence (Q13422 whole entry): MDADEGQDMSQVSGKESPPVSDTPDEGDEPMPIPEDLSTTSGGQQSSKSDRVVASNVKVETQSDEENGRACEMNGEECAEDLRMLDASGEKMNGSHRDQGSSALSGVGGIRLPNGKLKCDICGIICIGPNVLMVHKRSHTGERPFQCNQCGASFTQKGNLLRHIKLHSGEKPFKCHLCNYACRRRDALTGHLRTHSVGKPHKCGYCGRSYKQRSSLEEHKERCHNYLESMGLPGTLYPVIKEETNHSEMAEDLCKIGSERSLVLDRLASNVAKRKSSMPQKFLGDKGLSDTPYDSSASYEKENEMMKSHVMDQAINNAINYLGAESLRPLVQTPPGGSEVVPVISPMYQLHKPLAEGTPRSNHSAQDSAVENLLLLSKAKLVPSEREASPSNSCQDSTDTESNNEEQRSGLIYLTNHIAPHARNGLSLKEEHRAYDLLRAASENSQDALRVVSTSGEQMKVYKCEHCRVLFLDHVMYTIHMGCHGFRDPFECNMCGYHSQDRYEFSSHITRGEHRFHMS
T3 sequence (Q96SW2 whole entry): as the sequence (Q96SW2 whole entry) above
T3 sequence (Q16531 whole entry partner): as the sequence (Q16531 whole entry partner) above
The description is as above. Type of experiment: cell-based.

In the next experiment the target is T4, IKZF2 (Homo sapiens, UniProt Q96SW2+Q9UKS7).
T4 construct: effects of the compounds of the present disclosure on the expression of target proteins in cells; endogenous in cells; host or cells: human PBMCs (Milecell Biotechnologies)
T4 sequence (Q9UKS7 whole entry): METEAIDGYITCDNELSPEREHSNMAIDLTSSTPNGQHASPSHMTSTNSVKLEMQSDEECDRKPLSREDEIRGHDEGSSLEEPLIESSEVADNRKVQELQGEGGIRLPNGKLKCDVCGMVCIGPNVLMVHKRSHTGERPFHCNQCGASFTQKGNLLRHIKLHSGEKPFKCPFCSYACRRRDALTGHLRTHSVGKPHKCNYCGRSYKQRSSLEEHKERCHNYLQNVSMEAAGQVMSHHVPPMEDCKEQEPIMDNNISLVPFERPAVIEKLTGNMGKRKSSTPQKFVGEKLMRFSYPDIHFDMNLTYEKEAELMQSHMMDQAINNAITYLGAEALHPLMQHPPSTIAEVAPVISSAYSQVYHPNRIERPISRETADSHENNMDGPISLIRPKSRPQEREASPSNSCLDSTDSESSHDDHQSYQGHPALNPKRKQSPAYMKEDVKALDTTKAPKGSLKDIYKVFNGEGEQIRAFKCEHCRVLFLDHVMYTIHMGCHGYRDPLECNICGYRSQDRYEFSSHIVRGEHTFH
T4 sequence (Q96SW2 whole entry): as the sequence (Q96SW2 whole entry) above
T4 sequence (Q16531 whole entry partner): as the sequence (Q16531 whole entry partner) above
The experiment is described as above. Type of experiment: cell-based.

In another experiment the target is T5, IKZF3 (Homo sapiens, UniProt Q96SW2+Q9UKT9).
T5 construct: effects of the compounds of the present disclosure on the expression of target proteins in cells; endogenous in cells; host or cells: human PBMCs (Milecell Biotechnologies)
T5 sequence (Q9UKT9 whole entry): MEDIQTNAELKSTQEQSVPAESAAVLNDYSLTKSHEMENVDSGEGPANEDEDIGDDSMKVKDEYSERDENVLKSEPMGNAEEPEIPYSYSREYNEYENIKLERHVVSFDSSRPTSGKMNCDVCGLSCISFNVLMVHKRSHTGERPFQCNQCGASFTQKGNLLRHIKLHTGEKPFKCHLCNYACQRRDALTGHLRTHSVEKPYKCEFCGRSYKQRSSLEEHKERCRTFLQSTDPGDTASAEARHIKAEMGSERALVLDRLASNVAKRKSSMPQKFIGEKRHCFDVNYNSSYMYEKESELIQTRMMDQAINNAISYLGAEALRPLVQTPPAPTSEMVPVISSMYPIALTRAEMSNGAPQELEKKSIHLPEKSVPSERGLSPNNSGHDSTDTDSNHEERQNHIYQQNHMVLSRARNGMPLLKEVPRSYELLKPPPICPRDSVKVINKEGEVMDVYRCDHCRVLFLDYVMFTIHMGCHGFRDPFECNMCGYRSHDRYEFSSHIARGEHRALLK
T5 sequence (Q96SW2 whole entry): as the sequence (Q96SW2 whole entry) above
T5 sequence (Q16531 whole entry partner): as the sequence (Q16531 whole entry partner) above
The description is as above. In kind it is cell-based.

A further experiment has as its system GSPT1. The description is as above. In kind it is cell-based, Human.
Experiment [2] addresses T6, human Cereblon WT GST-tagged protein (Homo sapiens, UniProt Q96SW2).
T6 construct: purchased CISBIO 64BDCRBNPEH
Put plainly: CRBN-binding affinity, HTRF (CEREBLON BINDING kit). The following applies: for inhibition at 0.5 µM: read-out: Inhibition Rate at 0.5 µM (%); for inhibition at 2 µM: read-out: Inhibition Rate at 2 µM (%). In general terms: Time-resolved FRET reads energy transfer from a long-lived donor to a nearby acceptor.

For experiment [3], the system named is Human multiple myeloma peripheral blood B lymphocyte cell (RPMI-8226). The experiment in a line: Tumor cell proliferation inhibition (CellTiter-Meiluncell luminescent cell viability assay). The settings on record: RPMI-8226, 96 h; for inhibition at 0.01 µM: read-out: Inhibition Rate at 10 nM (%); for inhibition at 0.5 µM: read-out: Inhibition Rate at 500 nM (%).
Procedure: The tumor cells used herein were cultured in a cell culture medium listed in table 2 at 37°C in an incubator with 5% CO2. Prior to experimentation, all cell lines used were correctly identified by STR profiling, and tested negative for mycoplasma contamination using a mycoplasma detection kit through routine screenings.
The IC50 values of the compounds of the present disclosure (including the compounds in Table 1 and Examples) were determined using the CellTiter-Meiluncell Luminescent Cell Viability Assay Kit from Dalian Meilun Biotech Co., Ltd. The detailed procedure is as follows: Tumor cells were seeded in 96-well cell culture plates at the densities specified in Table 3. On the following day, the test compounds of the present disclosure were subjected to serial dilution. The dilution can be performed according to one of the following two methods: • (1) The first dilution method: The test compounds of the present disclosure (including the compounds in Table 1 and Examples) were subjected to 5-fold serial dilutions starting from a highest concentration of 2000 µM, resulting in a total of 9 concentrations from high to low (2000, 400, 80, 16, 3.2, 0.64, 0.128, 0.0256, 0.00512 µM). Subsequently, 0.5 µL of the test compound dilution was transferred into the 96-well plate containing the cells, with each well containing 100 µL of cell culture medium. […] Into the 96-well plate, the diluted test compounds and corresponding detection reagents were added, resulting in final test compound concentrations of 500 nM and 10 nM, respectively. The experimental procedure is described below using the diluted 2 µM test compound as an example.
0.5 µL of the aforementioned diluted compound of the present disclosure (including the compounds in Table 1 and Examples) was added to the seeded cells in 100 µL of medium, yielding a final test compound concentration of 10 nM. After the cells were treated with the compounds of the present disclosure for a specified period, the cell viability assay reagent was added to the culture medium according to the kit's instructions to determine cell viability. […] All controls were treated using the same procedure as the compounds of the present disclosure. The growth inhibition curves for the compounds of the present disclosure were plotted using Prism GraphPad software, and the IC50 values were calculated therefrom.

In experiment [4] the test system is Human acute T lymphocytic leukemia cell (Molt4). The experiment is described as above. The settings on record: MOLT-4, 96 h; for inhibition at 0.01 µM: read-out: Inhibition Rate at 10 nM (%); for inhibition at 0.5 µM: read-out: Inhibition Rate at 500 nM (%).
Experiment [5] deals with Human multiple myeloma cell (MM.1S). The description is as above. The following applies: Homo sapiens, MM1.S, 96 h; for inhibition at 0.01 µM: read-out: Inhibition Rate at 10 nM (%); for inhibition at 0.5 µM: read-out: Inhibition Rate at 500 nM (%).
The mark [6] stands for this setting: Western blot, 24 hours of compound treatment, compounds tested at 50 nM and 500 nM (concentration for the table not stated).
Where [7] appears, read: 24 hours treatment, compounds at 50 nM and 500 nM (concentration behind the class not stated).

Molecules are shown by their SMILES.

T6 sequence (Q96SW2 whole entry): as the sequence (Q96SW2 whole entry) above
T2 sequence (P48729 whole entry): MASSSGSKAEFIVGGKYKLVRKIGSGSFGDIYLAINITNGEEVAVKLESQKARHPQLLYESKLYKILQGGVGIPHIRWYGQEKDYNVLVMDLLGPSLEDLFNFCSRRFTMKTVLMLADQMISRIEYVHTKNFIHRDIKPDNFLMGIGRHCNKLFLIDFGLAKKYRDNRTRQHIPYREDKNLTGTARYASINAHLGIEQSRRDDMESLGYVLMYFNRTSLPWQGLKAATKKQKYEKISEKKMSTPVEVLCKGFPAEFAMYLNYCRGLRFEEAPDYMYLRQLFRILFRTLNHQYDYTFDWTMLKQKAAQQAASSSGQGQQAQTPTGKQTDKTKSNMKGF
T2 sequence (Q96SW2 whole entry): as the sequence (Q96SW2 whole entry) above
T2 sequence (Q16531 whole entry partner): as the sequence (Q16531 whole entry partner) above

As to `Cc1cccc(N2CCN(Cc3ccc4c(c3)CN(C3CCC(=O)NC3=O)C4=S)CC2)c1` (stereo not drawn) [GT-08602, 3-(1-thioxo-5-((4-(m-tolyl)piperazin-1-yl)methyl)isoindolin-2-yl)piperidine-2,6-dione], the inhibition at 0.01 µM in experiment [1] is 18 to 25%; in experiment [3], 10 to 20%; in experiment [4], -5 to 0%; in experiment [5], 10 to 20%. Besides, the inhibition at 0.5 µM lay in the range of 80 to 100% in [1]; 40 to 53% in experiment [2]; 70 to 80% in experiment [3]; 80 to 100% in [4]; 80 to 100% in [5]. Also, at WEE1 (setting [6]), the “Wee1 substrate protein remaining %” value is given as “A (0% ≤ substrate protein remaining % ≤ 80%)”. Besides, the “CK1α substrate protein remaining %” value at CK1α (setting [6]) is given as “B (80%< substrate protein remaining %≤ 100%)”. For the same molecule, at IKZF1 (setting [6]), the “IKZF 1 substrate protein remaining %” value is recorded as “B (80%< substrate protein remaining %≤ 100%)”. Further, on IKZF2 (setting [6]), the “IKZF2 substrate protein remaining %” value is “B (80%< substrate protein remaining %≤ 100%)”. For the same molecule, the “IKZF3 substrate protein remaining %” value at IKZF3 (setting [6]) was “B (80%< substrate protein remaining %≤ 100%)”. Besides, the “GSPT1 substrate protein remaining %” value in the experiment on GSPT1 (setting [6]) is listed as “A (0% ≤ substrate protein remaining % ≤ 80%)”. In experiment [2], the inhibition at 2 µM was 80 to 100%.
Consider `O=C1CCC(N2Cc3cc(CN4CCC(c5cccc(Br)c5)CC4)ccc3C2=S)C(=O)N1` (stereo not drawn) [GT-08617, 3-(5-((4-(3-bromophenyl)piperidin-1-yl)methyl)-1-thioxoisoindolin-2-yl)piperidine-2,6-dione], for which the inhibition at 0.01 µM was in the range of 5 to 10% in experiment [1], 10 to 20% in experiment [3], 20 to 30% in experiment [4] and 30 to 40% in experiment [5]. The inhibition at 0.5 µM in experiment [1] was 80 to 100%; in [2] it was 40 to 53%; in [3], 50 to 60%; in experiment [4], 80 to 100%; in experiment [5], 80 to 100%. Moreover, on WEE1 (setting [6]), the “Wee1 substrate protein remaining %” value is reported as “B (80%< substrate protein remaining %≤ 100%)”. On CK1α (setting [6]), the “CK1α substrate protein remaining %” value was “B (80%< substrate protein remaining %≤ 100%)”. The “IKZF 1 substrate protein remaining %” value on IKZF1 (setting [6]) is given as “B (80%< substrate protein remaining %≤ 100%)”. Moreover, the “IKZF2 substrate protein remaining %” value at IKZF2 (setting [6]) is given as “B (80%< substrate protein remaining %≤ 100%)”. Besides, at IKZF3 (setting [6]), the “IKZF3 substrate protein remaining %” value is “B (80%< substrate protein remaining %≤ 100%)”. Further, the “GSPT1 substrate protein remaining %” value in the experiment with GSPT1 (setting [6]) was “A (0% ≤ substrate protein remaining % ≤ 80%)”. For the same molecule, the inhibition at 2 µM in experiment [2] was 80 to 100%.
Take `O=C1CCC(N2Cc3cc(CN4CCN(c5n[nH]c6cc(F)ccc56)CC4)ccc3C2=S)C(=O)N1` (stereo not drawn) [GT-09260, 3-(5-((4-(6-fluoro-1H-indazol-3-yl)piperazin-1-yl)methyl)-1-thioxoisoindolin-2-yl)piperidine-2,6-dione]: the inhibition at 0.01 µM in experiment [1] was in the range of 18 to 25%; in [3] it was 5 to 10%; in experiment [4], 20 to 30%; in [5] it was 10 to 20%. In addition, the inhibition at 0.5 µM lay within 80 to 100% in experiment [1]; 60 to 80% in experiment [2]; 40 to 50% in experiment [3]; 80 to 100% in [4]; 80 to 100% in experiment [5]. Further, the “Wee1 substrate protein remaining %” value on WEE1 (setting [7]) is reported as “B (80%< substrate protein remaining %≤ 100%)”. Also, the “CK1α substrate protein remaining %” value at CK1α (setting [7]) is on record as “B (80%< substrate protein remaining %≤ 100%)”. For the same molecule, at IKZF1 (setting [7]), the “IKZF 1 substrate protein remaining %” value is “B (80%< substrate protein remaining %≤ 100%)”. Also, at IKZF2 (setting [7]), the “IKZF2 substrate protein remaining %” value is recorded as “B (80%< substrate protein remaining %≤ 100%)”. In addition, the “IKZF3 substrate protein remaining %” value at IKZF3 (setting [7]) is on record as “B (80%< substrate protein remaining %≤ 100%)”. In addition, the “GSPT1 substrate protein remaining %” value with GSPT1 (setting [7]) was “A (0% ≤ substrate protein remaining % ≤ 80%)”. Besides, in experiment [2], the inhibition at 2 µM lay in the range of 80 to 100%.
